Source: ChEMBL document CHEMBL5131445, “Optimization of a novel piperazinone series as potent selective peripheral covalent BTK inhibitors” (Bioorg Med Chem Lett, 2022)

Columns and labels:
[1] = biological target: T1, Tyrosine-protein kinase ITK/TSK (Homo sapiens, UniProt Q08881); assay: Binding affinity to ITK (unknown origin) assessed as dissociation constant by KINOMEscan analysis
T1 sequence (Q08881 whole entry): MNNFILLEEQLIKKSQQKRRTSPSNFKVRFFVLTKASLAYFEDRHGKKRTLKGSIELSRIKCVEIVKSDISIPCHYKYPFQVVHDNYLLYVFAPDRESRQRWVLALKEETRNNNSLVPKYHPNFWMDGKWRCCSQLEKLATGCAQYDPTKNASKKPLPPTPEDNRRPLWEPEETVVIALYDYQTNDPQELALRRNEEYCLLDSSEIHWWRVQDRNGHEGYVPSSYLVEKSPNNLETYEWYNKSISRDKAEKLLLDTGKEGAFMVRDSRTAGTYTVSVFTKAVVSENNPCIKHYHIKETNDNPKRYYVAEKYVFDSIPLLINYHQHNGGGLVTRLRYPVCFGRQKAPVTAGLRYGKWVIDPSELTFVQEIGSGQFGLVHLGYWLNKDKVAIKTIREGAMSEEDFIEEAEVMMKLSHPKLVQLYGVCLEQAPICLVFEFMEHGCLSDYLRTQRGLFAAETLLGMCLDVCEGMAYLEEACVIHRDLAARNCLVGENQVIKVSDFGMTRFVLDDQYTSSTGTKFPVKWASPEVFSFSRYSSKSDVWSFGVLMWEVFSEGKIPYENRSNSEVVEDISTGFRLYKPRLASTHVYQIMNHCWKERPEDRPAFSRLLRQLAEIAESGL

[2] = biological target: T2, Tyrosine-protein kinase TXK (Homo sapiens, UniProt P42681); assay: Binding affinity to TXK (unknown origin) assessed as dissociation constant by KINOMEscan analysis
T2 sequence (P42681 whole entry): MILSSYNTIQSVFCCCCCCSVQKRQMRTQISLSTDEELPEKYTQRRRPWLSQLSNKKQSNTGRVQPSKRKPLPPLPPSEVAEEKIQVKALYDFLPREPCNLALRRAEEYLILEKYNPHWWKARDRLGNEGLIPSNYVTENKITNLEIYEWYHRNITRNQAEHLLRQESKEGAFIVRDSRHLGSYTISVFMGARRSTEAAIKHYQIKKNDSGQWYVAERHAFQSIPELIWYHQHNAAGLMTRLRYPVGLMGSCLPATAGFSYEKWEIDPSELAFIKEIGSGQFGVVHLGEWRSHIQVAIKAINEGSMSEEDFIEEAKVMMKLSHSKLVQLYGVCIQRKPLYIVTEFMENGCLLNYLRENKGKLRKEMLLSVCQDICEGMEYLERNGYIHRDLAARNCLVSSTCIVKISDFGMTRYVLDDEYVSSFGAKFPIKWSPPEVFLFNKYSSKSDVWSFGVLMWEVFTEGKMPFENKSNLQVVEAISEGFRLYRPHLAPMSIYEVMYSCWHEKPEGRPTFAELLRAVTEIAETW

BCRP = assay: Permeability across apical to basolateral side in dog MDCK-BCRP cells; format: ADME, cell-based, Canis lupus familiaris; conditions: read-out: permeability
[3] = biological target: T3, Tyrosine-protein kinase JAK3 (Homo sapiens, UniProt P52333); assay: Binding affinity to JAK3 (unknown origin) assessed as dissociation constant by KINOMEscan analysis
T3 sequence (P52333 whole entry): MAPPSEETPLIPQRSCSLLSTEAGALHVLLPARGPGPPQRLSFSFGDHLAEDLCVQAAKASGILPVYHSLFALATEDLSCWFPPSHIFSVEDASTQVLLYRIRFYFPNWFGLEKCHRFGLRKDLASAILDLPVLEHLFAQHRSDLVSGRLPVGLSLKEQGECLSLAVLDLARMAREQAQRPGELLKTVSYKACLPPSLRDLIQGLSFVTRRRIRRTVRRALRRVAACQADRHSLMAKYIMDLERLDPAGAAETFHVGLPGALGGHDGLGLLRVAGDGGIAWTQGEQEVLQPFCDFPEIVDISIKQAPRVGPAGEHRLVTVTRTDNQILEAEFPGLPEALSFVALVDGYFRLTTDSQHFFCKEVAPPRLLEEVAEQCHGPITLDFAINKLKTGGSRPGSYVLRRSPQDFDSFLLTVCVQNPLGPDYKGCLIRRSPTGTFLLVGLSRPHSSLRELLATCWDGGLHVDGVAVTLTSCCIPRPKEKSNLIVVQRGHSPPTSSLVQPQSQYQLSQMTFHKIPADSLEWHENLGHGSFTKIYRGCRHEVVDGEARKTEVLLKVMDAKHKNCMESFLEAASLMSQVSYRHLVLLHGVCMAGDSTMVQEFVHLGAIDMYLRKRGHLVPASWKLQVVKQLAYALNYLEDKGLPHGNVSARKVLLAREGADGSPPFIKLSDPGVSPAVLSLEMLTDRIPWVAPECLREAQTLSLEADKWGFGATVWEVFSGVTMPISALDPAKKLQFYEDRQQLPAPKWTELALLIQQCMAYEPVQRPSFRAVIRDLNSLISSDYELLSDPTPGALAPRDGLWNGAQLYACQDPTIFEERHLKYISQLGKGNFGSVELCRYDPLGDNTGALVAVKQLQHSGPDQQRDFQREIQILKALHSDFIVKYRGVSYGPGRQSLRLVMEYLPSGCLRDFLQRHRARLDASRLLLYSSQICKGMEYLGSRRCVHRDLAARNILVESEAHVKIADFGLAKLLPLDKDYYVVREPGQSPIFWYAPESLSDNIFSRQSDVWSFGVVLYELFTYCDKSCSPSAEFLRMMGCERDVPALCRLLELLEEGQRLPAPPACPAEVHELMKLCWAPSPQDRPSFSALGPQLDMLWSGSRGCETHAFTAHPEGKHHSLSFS

[4] = biological target: Receptor tyrosine-protein kinase erbB-4 (Homo sapiens, UniProt Q15303); assay: Binding affinity to ERBB4 (unknown origin) assessed as dissociation constant by KINOMEscan analysis
[5] = Plasma protein binding in human assessed as unbound fraction by rapid equilibrium dialysis method; format: ADME, cell-free
[6] = biological target: Epidermal growth factor receptor (Homo sapiens, UniProt P00533); assay: Binding affinity to EGFR (unknown origin) assessed as dissociation constant by KINOMEscan analysis
Cytochrome P450 2B6 = biological target: T4, Cytochrome P450 2B6 (Homo sapiens, UniProt P20813); assay: Inhibition of human CYP2B6; format: ADME
T4 sequence (P20813 whole entry): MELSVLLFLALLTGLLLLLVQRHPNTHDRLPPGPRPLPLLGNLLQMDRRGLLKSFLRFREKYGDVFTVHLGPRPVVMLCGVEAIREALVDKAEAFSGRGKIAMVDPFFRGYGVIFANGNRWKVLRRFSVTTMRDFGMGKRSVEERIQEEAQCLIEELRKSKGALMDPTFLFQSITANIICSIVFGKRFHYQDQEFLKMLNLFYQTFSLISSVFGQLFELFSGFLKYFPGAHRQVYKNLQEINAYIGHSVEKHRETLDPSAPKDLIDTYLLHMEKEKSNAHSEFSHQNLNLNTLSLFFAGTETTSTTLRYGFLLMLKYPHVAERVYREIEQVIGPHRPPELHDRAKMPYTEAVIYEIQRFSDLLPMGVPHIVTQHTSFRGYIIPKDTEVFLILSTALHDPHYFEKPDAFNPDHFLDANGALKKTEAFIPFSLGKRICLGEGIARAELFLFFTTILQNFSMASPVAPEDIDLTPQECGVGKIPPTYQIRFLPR

Sequence of Epidermal growth factor receptor (P00533 whole entry): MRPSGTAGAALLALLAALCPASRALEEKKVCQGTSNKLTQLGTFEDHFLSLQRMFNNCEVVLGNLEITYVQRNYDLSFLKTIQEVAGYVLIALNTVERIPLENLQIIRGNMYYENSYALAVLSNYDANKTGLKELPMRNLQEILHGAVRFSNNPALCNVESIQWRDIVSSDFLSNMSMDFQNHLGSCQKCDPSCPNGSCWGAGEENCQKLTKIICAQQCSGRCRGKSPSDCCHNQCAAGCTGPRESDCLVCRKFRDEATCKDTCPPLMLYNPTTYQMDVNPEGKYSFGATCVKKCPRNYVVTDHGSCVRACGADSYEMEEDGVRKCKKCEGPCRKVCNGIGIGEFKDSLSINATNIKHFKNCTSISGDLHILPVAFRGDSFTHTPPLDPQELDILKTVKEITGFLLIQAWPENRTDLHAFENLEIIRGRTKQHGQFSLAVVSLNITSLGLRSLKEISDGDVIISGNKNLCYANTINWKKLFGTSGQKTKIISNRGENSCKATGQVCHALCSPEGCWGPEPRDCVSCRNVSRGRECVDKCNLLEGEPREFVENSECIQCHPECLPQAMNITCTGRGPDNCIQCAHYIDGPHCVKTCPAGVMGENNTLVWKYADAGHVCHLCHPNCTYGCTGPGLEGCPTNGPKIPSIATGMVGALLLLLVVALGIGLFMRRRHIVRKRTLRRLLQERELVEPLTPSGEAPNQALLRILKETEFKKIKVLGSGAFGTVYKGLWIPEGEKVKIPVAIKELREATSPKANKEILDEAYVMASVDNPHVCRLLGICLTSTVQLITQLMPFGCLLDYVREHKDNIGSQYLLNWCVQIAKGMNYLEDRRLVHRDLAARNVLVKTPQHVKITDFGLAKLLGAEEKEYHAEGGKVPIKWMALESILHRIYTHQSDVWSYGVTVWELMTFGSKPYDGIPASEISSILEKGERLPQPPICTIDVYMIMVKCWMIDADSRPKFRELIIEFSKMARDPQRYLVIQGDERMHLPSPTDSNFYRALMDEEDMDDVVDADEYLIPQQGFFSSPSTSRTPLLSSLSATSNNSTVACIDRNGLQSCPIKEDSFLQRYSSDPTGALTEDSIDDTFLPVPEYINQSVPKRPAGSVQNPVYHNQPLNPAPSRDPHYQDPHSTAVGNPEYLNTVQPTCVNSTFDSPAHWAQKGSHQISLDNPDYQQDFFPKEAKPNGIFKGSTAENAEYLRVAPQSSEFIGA
Sequence of Receptor tyrosine-protein kinase erbB-4 (Q15303 whole entry): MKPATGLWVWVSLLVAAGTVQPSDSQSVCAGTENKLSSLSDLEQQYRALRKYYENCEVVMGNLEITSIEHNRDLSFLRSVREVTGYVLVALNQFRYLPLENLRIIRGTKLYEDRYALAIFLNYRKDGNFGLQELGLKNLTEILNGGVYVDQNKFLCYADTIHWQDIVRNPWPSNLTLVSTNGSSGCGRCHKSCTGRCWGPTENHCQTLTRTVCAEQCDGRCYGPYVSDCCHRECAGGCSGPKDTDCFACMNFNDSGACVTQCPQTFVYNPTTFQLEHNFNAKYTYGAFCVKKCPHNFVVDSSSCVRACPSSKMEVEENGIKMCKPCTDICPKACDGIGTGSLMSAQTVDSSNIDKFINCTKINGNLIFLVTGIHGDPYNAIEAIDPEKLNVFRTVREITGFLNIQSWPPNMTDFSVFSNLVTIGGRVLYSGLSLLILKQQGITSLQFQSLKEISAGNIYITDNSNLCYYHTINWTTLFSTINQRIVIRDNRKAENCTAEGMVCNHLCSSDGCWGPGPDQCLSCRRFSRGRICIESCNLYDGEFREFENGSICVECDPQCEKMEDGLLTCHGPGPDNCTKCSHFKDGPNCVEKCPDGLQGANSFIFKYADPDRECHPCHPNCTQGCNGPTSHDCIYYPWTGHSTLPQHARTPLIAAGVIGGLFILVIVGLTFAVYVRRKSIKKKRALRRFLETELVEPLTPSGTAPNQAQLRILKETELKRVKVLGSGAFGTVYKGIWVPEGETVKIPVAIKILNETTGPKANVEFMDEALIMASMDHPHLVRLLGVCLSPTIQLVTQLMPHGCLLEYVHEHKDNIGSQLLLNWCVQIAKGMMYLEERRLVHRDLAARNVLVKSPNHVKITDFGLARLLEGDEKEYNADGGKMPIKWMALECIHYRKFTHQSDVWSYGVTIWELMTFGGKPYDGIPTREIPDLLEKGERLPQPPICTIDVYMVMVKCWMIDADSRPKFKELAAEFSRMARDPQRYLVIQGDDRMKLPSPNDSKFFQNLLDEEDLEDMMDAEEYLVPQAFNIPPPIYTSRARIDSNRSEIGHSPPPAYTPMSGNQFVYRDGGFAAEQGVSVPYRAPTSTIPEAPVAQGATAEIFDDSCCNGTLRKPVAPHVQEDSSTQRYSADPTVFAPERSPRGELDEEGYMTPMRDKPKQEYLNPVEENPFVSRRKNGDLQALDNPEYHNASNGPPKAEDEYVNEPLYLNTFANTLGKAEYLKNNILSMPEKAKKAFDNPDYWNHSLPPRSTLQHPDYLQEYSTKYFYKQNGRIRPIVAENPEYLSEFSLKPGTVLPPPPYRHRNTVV

## C=CC(=O)N(C)CCOc1c(N)ncnc1-c1ccc(CN2CCN(CC(C)C)CC2=O)c(C)c1
[1]
  Kd: 30 µM
[2]
  Kd: 6.5 µM
BCRP
  Papp A→B: 0.4 ×10⁻⁶ cm/s
[3]
  Kd: 2.9 µM
[4]
  Kd: 0.89 µM
[5]
  fraction unbound: 0.227
[6]
  Kd: 30 µM
Cytochrome P450 2B6
  IC50: > 10 µM
